In PubChem BioAssay AID256 (DTP/NCI, 2004):
Values joined by “and” are separate entries in the source; they are usually repeats but may differ in a detail not shown here. Equal values may be shown once. Inconclusive results and toxic doses are left out. The calls were made as follows: active = survival T/C of 150% or more; inactive = T/C below 125% in these data.

System: CD2F1 mice, L1210 leukemia ip, survival T/C
Assay: NCI In Vivo Anticancer Drug Screen. Data for tumor model L1210 Leukemia (intraperitoneal) in CD2F1 (CDF1) mice
Details: higher = longer survival
Outline: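 Read-out first: treated-group measurement over vehicle-control measurement, expressed as a ratio. Animals bore a transplanted tumor line and were dosed with compound or vehicle.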

[1] = endpoint: mean survival time, dose: 100.0 mg/kg/injection, schedule: Q04DX003 (ip), vehicle: saline
[2] = endpoint: mean survival time, dose: 100.0 mg/kg/injection, schedule: Q04DX003 (ip), vehicle: saline with Tween-80
[3] = endpoint: mean survival time, dose: 200.0 mg/kg/injection, schedule: Q04DX003 (ip), vehicle: saline with Tween-80
[4] = endpoint: mean survival time, dose: 100.0 mg/kg/injection, schedule: Q01DX001 (ip), vehicle: saline
[5] = endpoint: mean survival time, dose: 200.0 mg/kg/injection, schedule: Q01DX001 (ip), vehicle: saline
[6] = endpoint: mean survival time, dose: 400.0 mg/kg/injection, schedule: Q01DX001 (ip), vehicle: saline
[7] = endpoint: mean survival time, dose: 75.0 mg/kg/injection, schedule: Q01DX001 (ip), vehicle: saline
[8] = endpoint: mean survival time, dose: 400.0 mg/kg/injection, schedule: Q04DX003 (ip), vehicle: saline with Tween-80
[9] = endpoint: mean survival time, dose: 100.0 mg/kg/injection, schedule: Q01DX009 (ip), vehicle: saline with Tween-80
[10] = endpoint: mean survival time, dose: 200.0 mg/kg/injection, schedule: Q01DX009 (ip), vehicle: saline with Tween-80

Measured: T/C

Cn1c(-c2ccccc2N=NN2CCCCC2)nc(=N)c2ccccc21
inactive: endpoint: mean survival time, dose: 6.25 mg/kg/injection, schedule: Q01DX005 (ip), vehicle: water 95 % of control | endpoint: mean survival time, dose: 12.5 mg/kg/injection, schedule: Q01DX005 (ip), vehicle: water 95 % of control

CC(C(=O)c1ccccc1)N(C)C (stereo not given)
inactive: [1] 100 % of control

CC(CN=Cc1ccccc1[O-])N=Cc1ccccc1[O-].[O]=[V] (stereo not given)
inactive: endpoint: mean survival time, dose: 5.0 mg/kg/injection, schedule: Q04DX003 (ip), vehicle: saline with Tween-80 90 % of control | endpoint: mean survival time, dose: 10.0 mg/kg/injection, schedule: Q04DX003 (ip), vehicle: saline with Tween-80 94 % of control | endpoint: mean survival time, dose: 20.0 mg/kg/injection, schedule: Q04DX003 (ip), vehicle: saline with Tween-80 90 % of control

O=C1OCC2CC=CCC12 (stereo not given)
inactive: endpoint: mean survival time, dose: 50.0 mg/kg/injection, schedule: Q01DX001 (ip), vehicle: carboxymethylcellulose (CMC) 92 % of control | endpoint: mean survival time, dose: 100.0 mg/kg/injection, schedule: Q01DX001 (ip), vehicle: carboxymethylcellulose (CMC) 100 % of control | endpoint: mean survival time, dose: 200.0 mg/kg/injection, schedule: Q01DX001 (ip), vehicle: carboxymethylcellulose (CMC) 92 % of control | endpoint: mean survival time, dose: 400.0 mg/kg/injection, schedule: Q01DX001 (ip), vehicle: carboxymethylcellulose (CMC) 97 % of control

O=C(O)C1C2C/C(=N\O)C(C2)C1C(=O)O (stereo not given)
inactive: endpoint: mean survival time, dose: 50.0 mg/kg/injection, schedule: Q04DX003 (ip), vehicle: saline 94 % of control | [1] 101 % of control | endpoint: mean survival time, dose: 200.0 mg/kg/injection, schedule: Q04DX003 (ip), vehicle: saline 103 % of control

CCCCCC[C@H]([C@H](C)O)n1cnc2c(N)ncnc21
inactive: endpoint: mean survival time, dose: 0.38 mg/kg/injection, schedule: Q03HX024 (ip), vehicle: saline with Tween-80 92 % of control | endpoint: mean survival time, dose: 0.57 mg/kg/injection, schedule: Q03HX024 (ip), vehicle: saline with Tween-80 96 % of control | endpoint: mean survival time, dose: 1.3 mg/kg/injection, schedule: Q03HX024 (ip), vehicle: saline with Tween-80 102 % of control | endpoint: mean survival time, dose: 2.0 mg/kg/injection, schedule: Q03HX024 (ip), vehicle: saline with Tween-80 98 % of control | endpoint: mean survival time, dose: 3.0 mg/kg/injection, schedule: Q03HX024 (ip), vehicle: saline with Tween-80 96 % of control | endpoint: mean survival time, dose: 4.5 mg/kg/injection, schedule: Q03HX024 (ip), vehicle: saline with Tween-80 98 % of control | endpoint: mean survival time, dose: 5.0 mg/kg/injection, schedule: Q03HX024 (ip), vehicle: saline with Tween-80 104 % of control | endpoint: mean survival time, dose: 6.25 mg/kg/injection, schedule: Q01DX009 (ip), vehicle: Klucel (hydroxypropylcellulose) (HPC) 95 % of control and 100 % of control | endpoint: mean survival time, dose: 10.0 mg/kg/injection, schedule: Q03HX024 (ip), vehicle: saline with Tween-80 107 % of control | endpoint: mean survival time, dose: 12.5 mg/kg/injection, schedule: Q01DX009 (ip), vehicle: Klucel (hydroxypropylcellulose) (HPC) 98 % of control and 100 % of control | endpoint: mean survival time, dose: 25.0 mg/kg/injection, schedule: Q01DX009 (ip), vehicle: Klucel (hydroxypropylcellulose) (HPC) 100 % of control and 101 % of control | endpoint: mean survival time, dose: 25.0 mg/kg/injection, schedule: Q03HX024 (ip), vehicle: saline with Tween-80 105 % of control | endpoint: mean survival time, dose: 50.0 mg/kg/injection, schedule: Q01DX009 (ip), vehicle: Klucel (hydroxypropylcellulose) (HPC) 97 % of control and 100 % of control | endpoint: mean survival time, dose: 50.0 mg/kg/injection, schedule: Q03HX024 (ip), vehicle: saline with Tween-80 105 % of control | endpoint: mean survival time, dose: 100.0 mg/kg/injection, schedule: Q01DX009 (ip), vehicle: Klucel (hydroxypropylcellulose) (HPC) 95 % of control and 100 % of control | endpoint: mean survival time, dose: 100.0 mg/kg/injection, schedule: Q03HX024 (ip), vehicle: saline with Tween-80 96 % of control | endpoint: mean survival time, dose: 200.0 mg/kg/injection, schedule: Q01DX009 (ip), vehicle: Klucel (hydroxypropylcellulose) (HPC) 100 % of control | endpoint: median survival time, dose: 25.0 mg/kg/injection, schedule: Q01DX009 (ip), vehicle: Klucel (hydroxypropylcellulose) (HPC) 96 % of control | endpoint: median survival time, dose: 50.0 mg/kg/injection, schedule: Q01DX009 (ip), vehicle: Klucel (hydroxypropylcellulose) (HPC) 101 % of control | endpoint: median survival time, dose: 100.0 mg/kg/injection, schedule: Q01DX009 (ip), vehicle: Klucel (hydroxypropylcellulose) (HPC) 97 % of control

CCCCc1c(C)[nH]c(=S)[nH]c1=O
inactive: [2] 91 % of control | [3] 96 % of control

CC(C)C(C)(C)OC(=O)c1ccc([N+](=O)[O-])cc1
inactive: [4] 100 % of control | [5] 96 % of control | [6] 98 % of control

NNC(=O)c1cccc([N+](=O)[O-])c1
inactive: [7] 109 % of control

CSCCCCCCSC
inactive: [2] 95 % of control | [3] 101 % of control

CN(C)C(C)(C)CC(C)(C)C
inactive: [2] 96 % of control

O=C(O)c1c(Cl)cccc1Br
inactive: endpoint: mean survival time, dose: 100.0 mg/kg/injection, schedule: Q04DX002 (ip), vehicle: saline with Tween-80 95 % of control | endpoint: mean survival time, dose: 200.0 mg/kg/injection, schedule: Q04DX002 (ip), vehicle: saline with Tween-80 95 % of control | endpoint: mean survival time, dose: 400.0 mg/kg/injection, schedule: Q04DX002 (ip), vehicle: saline with Tween-80 98 % of control

CC(=O)N1c2ccc(Br)cc2C(=O)C1C (stereo not given)
inactive: endpoint: mean survival time, dose: 100.0 mg/kg/injection, schedule: Q01DX001 (ip), vehicle: other 98 % of control | endpoint: mean survival time, dose: 200.0 mg/kg/injection, schedule: Q01DX001 (ip), vehicle: other 104 % of control | endpoint: mean survival time, dose: 400.0 mg/kg/injection, schedule: Q01DX001 (ip), vehicle: other 95 % of control

N#Cc1cnn(-c2ccc([N+](=O)[O-])cc2)c1N
inactive: [2] 111 % of control | [3] 100 % of control | [8] 100 % of control

C#CCOC(=O)Nc1cccc2ccccc12
inactive: endpoint: mean survival time, dose: 100.0 mg/kg/injection, schedule: Q04DX003 (ip), vehicle: Klucel (hydroxypropylcellulose) (HPC) 100 % of control | endpoint: mean survival time, dose: 200.0 mg/kg/injection, schedule: Q04DX003 (ip), vehicle: Klucel (hydroxypropylcellulose) (HPC) 96 % of control | endpoint: mean survival time, dose: 400.0 mg/kg/injection, schedule: Q04DX003 (ip), vehicle: Klucel (hydroxypropylcellulose) (HPC) 94 % of control

COc1cccc(/C=C/C(=O)O)c1OC
inactive: endpoint: mean survival time, dose: 25.0 mg/kg/injection, schedule: Q01DX009 (ip), vehicle: water 88 % of control | endpoint: mean survival time, dose: 50.0 mg/kg/injection, schedule: Q01DX009 (ip), vehicle: water 88 % of control | endpoint: mean survival time, dose: 100.0 mg/kg/injection, schedule: Q01DX009 (ip), vehicle: water 101 % of control | endpoint: mean survival time, dose: 200.0 mg/kg/injection, schedule: Q01DX009 (ip), vehicle: water 95 % of control | endpoint: mean survival time, dose: 400.0 mg/kg/injection, schedule: Q01DX009 (ip), vehicle: water 95 % of control

CCc1c(-c2ccccc2)c(CN2CCCCC2)c2ccccn12
inactive: [7] 103 % of control | endpoint: mean survival time, dose: 150.0 mg/kg/injection, schedule: Q01DX001 (ip), vehicle: saline 103 % of control | endpoint: mean survival time, dose: 300.0 mg/kg/injection, schedule: Q01DX001 (ip), vehicle: saline 113 % of control

CCOC(=O)C(N=O)C(=O)c1ccccc1 (stereo not given)
inactive: endpoint: mean survival time, dose: 100.0 mg/kg/injection, schedule: Q01DX009 (ip), vehicle: saline sonified 95 % of control | [2] 96 % of control | endpoint: mean survival time, dose: 200.0 mg/kg/injection, schedule: Q01DX009 (ip), vehicle: saline sonified 101 % of control | [3] 95 % of control | endpoint: mean survival time, dose: 400.0 mg/kg/injection, schedule: Q01DX009 (ip), vehicle: saline sonified 92 % of control | [8] 86 % of control

CCCOc1ccc(C(N)=S)c2ccccc12
inactive: endpoint: mean survival time, dose: 100.0 mg/kg/injection, schedule: Q04DX002 (ip), vehicle: Klucel (hydroxypropylcellulose) (HPC) 105 % of control | endpoint: mean survival time, dose: 200.0 mg/kg/injection, schedule: Q04DX002 (ip), vehicle: Klucel (hydroxypropylcellulose) (HPC) 102 % of control | endpoint: mean survival time, dose: 400.0 mg/kg/injection, schedule: Q04DX002 (ip), vehicle: Klucel (hydroxypropylcellulose) (HPC) 105 % of control

c1ccc2c(c1)Cc1nc3ccccc3nc1-2
inactive: [9] 94 % of control | [2] 105 % of control | [10] 94 % of control | [3] 103 % of control | endpoint: mean survival time, dose: 400.0 mg/kg/injection, schedule: Q01DX009 (ip), vehicle: saline with Tween-80 97 % of control | [8] 97 % of control

CCOC(=O)C1CNC(=O)C1=O (stereo not given)
inactive: [4] 106 % of control | [2] 100 % of control | [5] 110 % of control | [3] 101 % of control | [6] 106 % of control | [8] 95 % of control

Brc1ccc2c(c1)C(Br)c1ccccc1-2 (stereo not given)
inactive: endpoint: mean survival time, dose: 50.0 mg/kg/injection, schedule: Q01DX009 (ip), vehicle: saline with Tween-80 105 % of control | [9] 103 % of control | [2] 101 % of control | [10] 100 % of control | [3] 101 % of control

O=c1[nH]ccc(=S)[nH]1
inactive: endpoint: mean survival time, dose: 100.0 mg/kg/injection, schedule: Q01DX001 (ip), vehicle: saline with Tween-80 97 % of control | endpoint: mean survival time, dose: 200.0 mg/kg/injection, schedule: Q01DX001 (ip), vehicle: saline with Tween-80 88 % of control
